The test system of test [1] is human myeloma tumors derived from RPMI 8226 cells. The test can be described thus: Additional study: RPMI 8226 myeloma tumors in mice, 2 cycles of treatment, 102 days. Format: in vivo. On the procedure: In an additional study, mice implanted with human myeloma tumors derived from RPMI 8226 cells were randomized into 4 groups and treated with control nanoparticles, or, either SNS01-T (0.375 mg/kg; i.v., twice per week), lenalidomide (50 mg/kg; i.p., 5× per week) or both. The mice received 2 cycles of treatment, 6 weeks and 5 weeks respectively, with an 11 day rest period between cycles. Mice, whose tumors were undetectable at the end of cycle 1, received no drug treatment in cycle 2 unless tumor reappeared. The mice were monitored for 2 weeks after the end of the second cycle of treatment. The total length of the study was 102 days.

For a further test, the system named is RPMI 8226 myeloma cells. The test can be described thus: RPMI 8226 multiple myeloma subcutaneous tumors in SCID mice, 6 weeks of dosing. Conditions: for tumor growth inhibited compared to control nanoparticles: end of 6 weeks of dosing.

Data on one compound can be found in patent publication US20150126582A1, “Combination Treatment of Multiple Myeloma” (Sevion Therapeutics, Inc., priority 2012, published 2015).

Molecules are shown by their SMILES.

Method for RPMI 8226 myeloma cells: SCID mice are injected subcutaneously with RPMI 8226 cells. […] Groups of six SCID/CB17 mice (3-5 weeks old) are injected with 12 million RPMI 8226 myeloma cells in 200 μL PBS in their right flank and treatment is initiated when the tumours reached a minimum size of 10 mm^3.
Control mice are injected intravenously two times per week with PEI complexes containing pCpG-mcs (empty vector) and control siRNA at a dose of 0.375 mg (nucleic acid)/kg. Mice receiving SNS01-T were injected intra-venously two times per week at 0.375 mg/kg. Mice treated with lenalidomide received 5 doses per week by intra-peritoneal injection of lenalidomide (Celgene) at doses of 15 mg/kg or 50 mg/kg. Mice receiving both SNS01-T and lenalidomide were dosed 2×/week with SNS01-T by intra-venous injection at 0.375 mg/kg and 5× per week with lenalidomide by intra-peritoneal injection at either 15 mg/kg or 50 mg/kg. […] Tumor volume is measured for all the mice in each group at least twice weekly.

As for `Nc1cccc2c1CN(C1CCC(=O)NC1=O)C2=O` (racemic) [lenalidomide, 3-(4-amino-oxo-1,3-dihydro-isoindol-2-yl)-piperidine-2,6-dione], the “tumor growth inhibited compared to control nanoparticles” value in test [1] (end of the second cycle of dosing, lenalidomide 50 mg/kg i.p. 5x per week (alone, or with SNS01-T 0.375 mg/kg i.v. twice per week)) was determined as 34%; in the test with RPMI 8226 myeloma cells (lenalidomide 15 mg/kg i.p. 5 doses/week (alone, or with SNS01-T 0.375 mg/kg i.v. 2x/week)), 51%; with RPMI 8226 myeloma cells (lenalidomide 50 mg/kg i.p. 5 doses/week (alone, or with SNS01-T 0.375 mg/kg i.v. 2x/week)) it was 78%. Moreover, the median survival in test [1] (lenalidomide 50 mg/kg i.p. 5x per week, study length 102 days) worked out at 95 days; in the test on RPMI 8226 myeloma cells (lenalidomide 15 mg/kg i.p. 5x/week), 53 days. The “surviving animals with undetectable tumors” value in the test on RPMI 8226 myeloma cells (end of 6 weeks, lenalidomide alone, 15 mg/kg or 50 mg/kg i.p. 5x/week) was “No surviving animals”.
